Tested on: mouse DTH model
Experiment: Mouse delayed-type hypersensitivity (DTH) model, oxazalone ear swelling
Format: in vivo
Details: BALB/c mice, oxazalone challenge of right ear, 24 hr after challenge; histology FIGS. 15C-15D
Experimental: Mouse DTH in-vivo assay is an inflammatory model which is known as type IV hypersensitivity reactions and is mediated by soluble antigens primarily involving CD4+ or CD8+ T cell activation. This assay is characterized by the release of mediators from activated T cells. The T cells then activate local endothelial cells and recruit macrophages, which results in local inflammation and swelling. In this assay, female BALB/c mice were sensitized on the shaved abdominal skin with 100 μl of 2% oxazalone dissolved in acetone/olive oil [4:1 (vol/vol)] applied topically (day 0). DTH sensitivity was elicited 6 days later by challenging the mice with 20 μl of 0.5% oxazalone in acetone/olive oil, 10 μl administered topically to each side of the right ear. Control group was subcutaneously injected with Dexamethasone 100 μg/mouse in a total volume of 200 μl. 24 hr after challenge the swelling of the right ear was measured using a Micrometer, digital caliper (Mitutoyo Corp, Tokyo, Japan). The swelling of the left ear was served as control and the readout of this experiment model was the delta between the right and left ear (FIG. 15E).

## OC1(c2ccc(Cl)c(C(F)(F)F)c2)CCN(CCCC(c2ccc(F)cc2)c2ccc(F)cc2)CC1 [Penfluridol]
  effect in mouse DTH model: pro-inflammatory effect
